# In PubChem BioAssay AID1996:
# Settings: buffer; pH 7.4; 200.0 µM
row,Structure (SMILES),solubility kinetic
1,O=c1[nH]c(/C=C\c2cccc(C(F)(F)F)c2)nc(O)c1[N+](=O)[O-],> 49.1 µg/mL
2,C[N+](C)(C)CCOC(=O)CCC(=O)OCC[N+](C)(C)C.O.[Cl-],> 59.6 µg/mL
3,Cc1ccc(C2N3CCCN23)cc1 (stereo unspecified),> 26.1 µg/mL
4,Cc1ccccc1-c1nnc(CS(=O)(=O)c2ccccc2)o1,> 47.2 µg/mL
5,CC(C(=O)OCC(=O)c1ccccc1)N1C(=O)c2ccccc2C1=O (stereo unspecified),40.4 µg/mL
6,COc1ccc(Cn2c(C)nc3c(c(=O)c4ccccc4n3C)c2=O)cc1,0.7 µg/mL
7,CCOc1ncccc1C(=O)Nc1cc(S(=O)(=O)N(CC)CC)ccc1N1CCOCC1,6.5 µg/mL
8,NC(=S)c1cc2cc(Br)ccc2oc1=O,< 0.6 µg/mL
9,O=C(Cc1c(Cl)cccc1Cl)NC1CC1,> 36.6 µg/mL
10,Clc1ncc(CSc2ccccc2)s1,2.3 µg/mL
11,CCN(c1ccccc1)S(=O)(=O)c1cccc(C(=O)OCC(=O)Nc2ccc(NC(C)=O)cc2)c1,2.6 µg/mL
12,O=C(CN1C(=O)NC2(CCCC2)C1=O)Nc1ccccc1N1CCCC1,46.4 µg/mL
13,Cn1c(=O)c([N+](=O)[O-])c(NCC2CCCO2)c2ccccc21 (stereo unspecified),> 45.5 µg/mL
14,CC(NC(=O)C1CC1)c1ccc(-c2ccccc2)cc1 (stereo unspecified),1.5 µg/mL
15,O=C(Nc1ccccc1)c1cccc(C(=O)Nc2ccccc2)n1,0.3 µg/mL
16,O=C(Nc1ccc(-c2ccccc2)cc1)c1ccco1,22.4 µg/mL
17,O=C(COc1ccc2ccccc2c1)Nc1ccncc1,6.1 µg/mL
18,Cc1cccn2cc(-c3ccc(Cl)cc3)nc12,2.7 µg/mL
19,Cc1cccnc1NC(=S)Nc1ccc(F)cc1F,8 µg/mL
20,CCCSc1nsc(NC(=O)CCC)n1,10.8 µg/mL
21,COc1ccc(CCNc2ccc([N+](=O)[O-])cn2)cc1,7.1 µg/mL
22,CC(C)NC(=O)COc1ccc(OCc2ccccc2)cc1,9.5 µg/mL
23,O=C(c1ccc(Cl)s1)N1CCN(S(=O)(=O)c2ccc(Cl)cc2)CC1,3.2 µg/mL
24,CC1=C(C(=O)Nc2ccccc2)C(c2cccs2)NC(=O)N1 (stereo unspecified),41.3 µg/mL
25,Cc1csc(SCC(=O)Nc2ccc(F)cc2Cl)n1,> 47.5 µg/mL

row,Structure (SMILES),solubility kinetic
1,CCOc1ncccc1C(=O)OCc1c(F)cccc1Cl,4.6 µg/mL
2,O=C(O)c1cc(S(=O)(=O)NCCCN2CCCC2=O)ccc1Cl,> 54.1 µg/mL
3,Cc1nc2ccc([N+](=O)[O-])cc2s1,19.4 µg/mL
4,NC(=O)c1ccsc1NC(=O)COC(=O)c1cccnc1Cl,4.7 µg/mL
5,CCN(c1ccccc1)S(=O)(=O)c1ccc(C(=O)Nc2ccccc2OC)cc1,3.7 µg/mL
6,Nc1ccc2c(c1)Oc1ccccc1C=C2,12.3 µg/mL
7,CC(c1ccccc1)C1CC(=O)N(c2ccc([N+](=O)[O-])cc2)C1=O (stereo unspecified),32.5 µg/mL
8,O=C1CN(C(=O)COC(=O)CCC(=O)c2ccc(Cl)cc2)c2ccccc2N1,57.2 µg/mL
9,O=C(CN1C(=O)c2ccccc2C1=O)NC1CCCCCC1,12.4 µg/mL
10,O=C(Nc1ccc(O)cc1C(=O)O)c1cccs1,> 39.5 µg/mL
11,Cc1cc(=O)n(Cc2ccccc2)c2ccccc12,> 37.4 µg/mL
12,O=C(c1ccccn1)N1CCN(S(=O)(=O)c2ccccc2)CC1,> 49.7 µg/mL
13,CCOc1ccccc1NC(=O)C(C)SCc1ccccc1 (stereo unspecified),1.4 µg/mL
14,CCN1CCN(C(=O)C(N)Cc2ccccc2)CC1 (stereo unspecified),37.5 µg/mL
15,CCCOc1ccc(CNC(=S)Nc2ccccc2)cc1Cl,1.9 µg/mL
16,O=C(Nc1ccc(Br)cc1)c1ccc2ncsc2c1,7.9 µg/mL
17,CCOc1ccc(C)cc1S(=O)(=O)n1cnc2ccccc21,1 µg/mL
18,CN(C)/C=N/S(=O)(=O)c1ccc(Cl)cc1,35.8 µg/mL
19,N/C(=N\OC(=O)/C=C/c1ccccc1)c1ccc(Cl)cc1,1.3 µg/mL
20,CCOC(=O)c1sc(NC(=O)c2ccoc2C)c(C(N)=O)c1C,7.3 µg/mL
21,Cc1nc2ccc([N+](=O)[O-])cc2nc1C,> 30.5 µg/mL
22,Cc1nc2cc(NS(=O)(=O)c3ccccc3F)ccc2s1,35.6 µg/mL
23,Fc1ccc(N2CCN(Cc3cnc(Cl)s3)CC2)cc1,45.9 µg/mL
24,CC(C)COc1ccc(Cc2c(O)[nH]c(=S)[nH]c2=O)cc1,28.9 µg/mL
25,O=C(Nc1ccc2ccccc2c1)c1ccccc1O,0.7 µg/mL

row,Structure (SMILES),solubility kinetic
1,COc1ccc(CC(C)Nc2cccc(SC)c2)cc1 (stereo unspecified),1.6 µg/mL
2,Cc1ccc(NC(=O)CCCc2ccccc2)c([N+](=O)[O-])c1,4.5 µg/mL
3,O=C(Nc1ccc(Cl)cc1)c1ccc(Br)cc1F,< 0.7 µg/mL
4,O=C(NCC1CCCO1)c1ccc(F)c2ccccc12 (stereo unspecified),> 41 µg/mL
5,COc1ccccc1NS(=O)(=O)c1cc(N)ccc1N1CCCC1,21.4 µg/mL
6,CCn1cc(C(=O)NCc2ccc(OC)cc2)c(=O)c2ccc(C)nc21,0.4 µg/mL
7,COc1cc(C=O)ccc1Oc1ccc(S(=O)(=O)N2CCOCC2)cc1[N+](=O)[O-],28.7 µg/mL
8,Cc1cc2c(NCc3ccccc3)ncnc2s1.Cl,41.7 µg/mL
9,COc1cc(OC)c(NC(=O)c2csc(C)c2)cc1Cl,< 0.7 µg/mL
10,COc1ccccc1CNC(=O)C(Cc1ccccc1)NC(=O)c1ccccc1 (stereo unspecified),12.8 µg/mL
11,COc1ccc(C2=NOC(C(=O)Nc3cccnc3)C2)cc1OC (stereo unspecified),46.8 µg/mL
12,Cc1cc(=O)n(CC(=O)Nc2cc(Cl)ccc2C)c(C(C)C)n1,40.4 µg/mL
13,Cc1ccc(NC(=O)CN2C(=O)c3ccccc3S2(=O)=O)cc1C,5.9 µg/mL
14,COc1ccc(-c2cn3cccnc3n2)cc1,> 33.8 µg/mL
15,Cc1ccccc1-n1nc2c(c1NC(=O)C(C)(C)C)CS(=O)(=O)C2,> 52.1 µg/mL
16,Cn1c(N)c(C(=O)COC(=O)Cc2cccc(C(F)(F)F)c2)c(=O)n(C)c1=O,53.2 µg/mL
17,O=C(NCCCn1ccnc1)C1CCN(S(=O)(=O)c2cc([N+](=O)[O-])ccc2Cl)CC1,> 68.4 µg/mL
18,COc1cc(CCC(=O)OCC(=O)NCCc2ccc(S(N)(=O)=O)cc2)cc(OC)c1OC,> 72.1 µg/mL
19,CC(C)(C)CC(C)(C)NC(=O)c1ccccc1,> 35 µg/mL
20,COc1ccc(S(=O)(=O)NCC2CCCO2)cc1C(=O)O (stereo unspecified),> 47.3 µg/mL
21,CN(C)C(=O)CSc1ncccc1-c1nc2ccccc2[nH]1,42.6 µg/mL
22,O=C(O)c1nccnc1C(=O)Nc1ccccc1N1CCOCC1,> 49.2 µg/mL
23,CCN(CCO)Cc1cc(=O)oc2cc3c(cc12)CCC3,42.1 µg/mL
24,CCOc1ccccc1CNc1nc2ccccc2n1C,5.2 µg/mL
25,O=C(Nc1cc([N+](=O)[O-])ccc1F)c1ccc2ccccc2c1,< 0.3 µg/mL

row,Structure (SMILES),solubility kinetic
1,O=C(c1ccc(F)cc1)c1ccc(N2CCCCC2)cc1,3.6 µg/mL
2,Cc1c(Cl)cccc1NC(=O)CCN1C(=O)NC(C)(C)C1=O,> 48.6 µg/mL
3,Cc1ccc(C2=N/C(=C\c3ccc(F)cc3)C(=O)N2)cc1,0.7 µg/mL
4,O=C(c1ccco1)N1CCN(S(=O)(=O)c2ccccc2)CC1,> 48.1 µg/mL
5,Cc1ccc(NC(=O)C(=O)c2ccc(C)cc2)cc1,0.7 µg/mL
6,O=C1CNC(=O)/C1=C/c1ccc(Br)cc1,26.9 µg/mL
7,CCCCOC(=O)N1CCOCCOCCOCC1,40.2 µg/mL
8,O=C(NCCC1CC1(Cl)Cl)c1ccc([N+](=O)[O-])cc1 (stereo unspecified),36.9 µg/mL
9,O=C(CCC1CCCCC1)Nc1ccc(C(=O)c2ccncc2)cc1,< 0.4 µg/mL
10,Cn1cccc1C(=O)OCc1ccc(C(C)(C)C)cc1,0.7 µg/mL
11,CC(=O)c1cccc(NC(=O)NCCc2ccc(Cl)cc2)c1,1.6 µg/mL
12,COc1ccc(N2C(=O)c3ccccc3S2(=O)=O)cc1,1.5 µg/mL
13,O=C(/C=C/c1ccc(Cl)cc1)NCCCN1CCOCC1,> 46.3 µg/mL
14,O=Cc1cc([N+](=O)[O-])ccc1N1CCN(Cc2ccc3c(c2)OCO3)CC1,12.2 µg/mL
15,O=C(Nc1ncccn1)C12CC3CC(CC(C3)C1)C2,> 38.6 µg/mL
16,CCOc1cc2c(C#N)c(N3CCCCC3)nc(N)c2c(N)n1,10.6 µg/mL
17,CC(=O)Nc1nc(-c2cccc3ccccc23)cs1,5.3 µg/mL
18,CCc1sc(NC(=O)CN2CCC(C(N)=O)CC2)nc1-c1ccccc1,> 55.9 µg/mL
19,CC(C)(C)c1ccc(C(=O)NCc2ccco2)cc1,13.5 µg/mL
20,CCOC(=O)c1ccc(N=C(C)c2c(O)[nH]c(=O)[nH]c2=O)cc1,6.6 µg/mL
21,Cc1cc(NC(=O)CSc2nnc(-c3ccccc3F)n2N)no1,> 52.3 µg/mL
22,COC(=O)c1cc(OCC(=O)Nc2ccc3c(c2)CCC3)cc(C(=O)OC)c1,3 µg/mL
23,COc1ccc(C(=O)NCCc2ccc(F)cc2)cc1OC,> 45.5 µg/mL
24,Cc1cccc(-c2nc(N)nc(N)n2)c1,28 µg/mL
25,CCc1ccc(C2CC(=O)Nc3c2c(=O)nc2c(C)cccn32)cc1 (stereo unspecified),> 50 µg/mL

row,Structure (SMILES),solubility kinetic
1,Cc1ccc2ncccc2c1N,> 23.7 µg/mL
2,O=c1[nH]c2ccccc2nc1CCc1ccccc1,1.4 µg/mL
3,O=C(OCC(=O)N1CCOCC1)c1ccccc1OCc1ccccc1Cl,54.9 µg/mL
4,CC(Oc1ccc(Cl)cc1Cl)/C(N)=N/O (stereo unspecified),30.2 µg/mL
5,COCc1cc(SC2CCCCC2)nc(C)n1,11.7 µg/mL
6,NC(=NCCc1ccc(Cl)cc1)NS(=O)(=O)c1ccccc1,47.5 µg/mL
7,CCCn1c(N)c(N2CCCCC2)c(=O)n(CC(=O)Nc2ccc(C(C)=O)cc2)c1=O,14.8 µg/mL
8,Cc1cccc(NC(=O)C(C)n2cc([N+](=O)[O-])cn2)n1 (stereo unspecified),> 41.3 µg/mL
9,Cn1cnc2c1c(=O)n(Cc1cccc(F)c1)c(=O)n2C,30.8 µg/mL
10,COc1ccccc1NC1=Nc2cccc3cccc1c23,4.9 µg/mL
11,CC(=O)Oc1ccc(-c2cccc(C(=O)N3CCCCC3)c2)cc1,40.8 µg/mL
12,Cc1ccc(C(=O)Nc2cccc(C(O)c3ccccc3)c2)cc1 (stereo unspecified),2.5 µg/mL
13,CCOC(=O)c1cnc(/N=C/N(C)C)s1,29.6 µg/mL
14,CCc1ccc(/C=C2\SC(N3CCOCC3)=NC2=O)cc1,24.9 µg/mL
15,O=C(COC(=O)c1ccc(O)cc1O)NC1CCCCCC1,> 46.1 µg/mL
16,OCCCC1CCCCN1Cc1nc(Cc2ccccc2Cl)no1 (stereo unspecified),43.4 µg/mL
17,O=C(COc1ccc(F)cc1Cl)NC1CCCCCC1,28.3 µg/mL
18,O=Cc1cccc(OC(=O)Nc2ccccc2)c1,29.2 µg/mL
19,O=C(CCCc1c[nH]c2ccccc12)Nc1ncccc1O,35.9 µg/mL
20,O=C1N=C(N2CCOCC2)S/C1=C\c1ccncc1,> 41.3 µg/mL
21,COC(=O)c1ccccc1NC(=O)CSc1nc2ncccc2[nH]1,8.7 µg/mL
